Among the data in PubChem BioAssay (NCI) are TGI and GI50 values, retold here.

Holding throughout (experiment): NCI anticancer screen, dose series, 48 h
For test [1], the system named is HL-60(TB) leukemia.
The test system of test [2] is DU-145 prostate.
In test [3] the test system is T-47D breast.
For test [4], the system named is SK-MEL-2 melanoma.
Test [5] relates to K-562 leukemia.
In test [6] the test system is OVCAR-8 ovarian.
Test [7] concerns HCT-15 colon.
The test system of test [8] is SF-539 CNS.
For test [9], the system named is CAKI-1 renal.
In test [10] the test system is PC-3 prostate.

The structures appear in SMILES notation. Several values for one entry are separate records, joined by “and”; a condition that tells them apart may be missing. Equal values may be shown once.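 The compound was tested at five concentrations on cells cultured in 96-well plates, with a 48-hour exposure period. GI50 is the concentration that inhibits growth by half. TGI denotes the concentration required for complete inhibition of growth.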

In the case of `O=S(Nc1ccccc1)c1ccc(N2CCOCC2)cc1` (configuration not stated), the TGI was above 100 µM in test [1]; above 100 µM in [2]; 58.9 µM in test [3]; above 100 µM in [4]; above 100 µM in test [5]; above 100 µM in test [6]. For the same compound, the TGI in [7] and in test [8] was above 100 µM each time.

As for `CN(C)C(=O)OC1C(=O)N(C)c2ccc(Cl)cc2C2(c3ccccc3)N1C2(Cl)Cl` (configuration not stated), the TGI in test [1], in test [4], in [5], in [6], in test [7] and in test [9] was above 100 µM throughout.

Take `O=C(N/N=C/C=C/c1ccc([N+](=O)[O-])o1)c1cc2ccccc2cc1O`: the GI50 was 1.43 µM in test [1]; 2.26 µM in [2]; 1.44 µM in test [3]; 0.632 µM in test [5]; 2.02 µM in test [10]; 1.45 µM in test [6]. Also, the results for the GI50 in [7], in [8] and in test [9] were 0.465 µM, 2.44 µM and 0.933 µM, respectively. Further, the TGI in test [1] amounted to 11.3 µM; in test [2] it was 8.67 µM; in test [3] it was 3.68 µM; in test [5] it was 9.53 µM; in test [10] it was 9.97 µM; in test [6] it was 21.7 µM. Also, the TGI is 4.23 µM in test [7], 10.2 µM in test [8] and 5.02 µM in [9].

For `Cc1ccc(S(=O)(=O)n2c3ccc(Br)cc3c3nc4ccccc4nc32)cc1`, the TGI in test [2], in test [3], in [4], in test [5], in test [10] and in test [6] was above 100 µM throughout. The TGI in test [7] and in [9] was above 100 µM in each case.

With `COc1ccc(CC(N)c2ccc(OC)cc2)cc1` (configuration not stated), the TGI in test [1], in test [2], in test [3], in test [5], in test [10] and in test [6] was above 100 µM throughout. For the same compound, the TGI in test [7] and in test [9] was above 100 µM each time.

For `CCOc1ccc(N/C(=C(/C(Cl)=C(/Cl)N(CC)CC)[N+](=O)[O-])n2nnc3ccccc32)cc1`, the TGI in test [3] is 28.9 µM; in [4] it was 68.8 µM; in test [5], above 100 µM; in test [10], 41.9 µM; in test [6] it was 32.7 µM; in [7], 38.4 µM. Also, the TGI came to 47.4 µM in test [8] and 26.9 µM in test [9].

Turning to `NC(=O)NNc1nc(-c2ccccc2)cs1`, the TGI in test [2], in [3], in test [4], in test [5], in test [10] and in [6] was above 100 µM each time. In addition, the TGI in test [7] and in test [9] was above 100 µM in each case.

Take `Cc1cc(C)nc(SC2=C(Nc3ccc(C)c(Cl)c3)C(=O)N(Cc3ccccc3)C2=O)n1`: the GI50 in test [2], in [4], in [6] and in test [8] was above 160 µM in each case. Besides, the TGI in test [2], in test [4], in test [6] and in test [8] was above 160 µM in each case.

Regarding `[Cl][Sn]([c]1ccccc1)([c]1ccccc1)[c]1ccccc1`, the TGI was 0.899 µM and 0.0997 µM in [1]; 0.428 µM in test [2]; 0.412 µM in test [3]; 0.524 µM and 0.196 µM and 0.0578 µM in test [4]; 0.892 µM in test [5]; 1.02 µM in test [10]. Also, in test [8], the TGI is 0.642 µM and 0.244 µM and 0.0847 µM. For the same compound, the GI50 in [2] was 0.21 µM; in test [3] it was 0.171 µM; in test [5], 0.302 µM; in test [10], 0.327 µM; in test [8], 0.25 µM and 0.109 µM and 0.0284 µM.

As for `COc1ccc2c3c1OC1C(=O)C=CC4(CC2)N(C)CCC314` (configuration not stated), the TGI was above 100 µM in [2]; above 100 µM in test [3]; 54.3 µM in test [4]; above 100 µM in [5]; above 100 µM in test [10]; above 100 µM in test [6]. Besides, the TGI in [7] and in [9] was above 100 µM in each case.

With `C/C=C/c1cc(=O)c([C@@H]2OC(=O)c3cc(OC)cc(OC)c32)co1`, the TGI in test [1], in test [4], in test [5], in [6], in [8] and in test [9] was above 100 µM throughout.

With `COc1cc2ccc(=O)oc2cc1O`, the TGI in test [1] is 271 µM; in test [4] it was 577 µM; in [5] it was 562 µM; in [6], 424 µM; in [7], above 625 µM; in [8], 201 µM. In addition, in [9], the TGI worked out at 401 µM.

In the case of `CC(=O)Oc1cc2c(cc1OC(C)=O)OCC(c1ccc(C)cc1)C2` (configuration not stated), the TGI was 6.56 µM in test [1]; 34.1 µM in test [4]; 72.3 µM in test [5]; 68.6 µM in test [6]; 40.7 µM in test [7]; 32 µM in [8]. The TGI in test [9] is 40.4 µM.

`C=C[C@@H](C)[C@H](NS(=O)(=O)c1ccc(C)cc1)C(=O)OCC`: the TGI in test [1], in test [2], in test [4], in test [5], in test [10] and in [6] was above 100 µM each time. The TGI in [7] and in test [8] was above 100 µM throughout.

In the case of `COC(OC)[C@@H]1OC[C@H](n2cnc3c(N)ncnc32)[C@H]1O`, the TGI in test [2], in test [3], in test [4], in [5], in test [10] and in test [7] was above 100 µM throughout. Also, the TGI in test [8] and in [9] was above 100 µM throughout.

Take `COC(=O)C1CCC(=S)N1C(=O)c1ccccc1` (configuration not stated): the TGI in test [2], in test [3], in [4], in test [5], in test [10] and in test [6] was above 100 µM in each case. In addition, the TGI in [7] and in test [9] was above 100 µM throughout.

`O=S(=O)(c1ccc(NC2=NC(c3ccc(O)cc3)(c3ccccc3O)c3ccccc32)cc1)c1ccc(NC2=NC(c3ccc(O)cc3)(c3ccccc3O)c3ccccc32)cc1` (configuration not stated): the TGI was 5.09 µM in test [1]; above 35.4 µM in [2]; 22.9 µM in [4]; above 100 µM in [5]; above 58.7 µM in test [10]; above 40.7 µM in [6]. The TGI in test [7] is above 81 µM; in test [8] it was above 100 µM; in test [9], 59.4 µM.

In the case of `Cc1cc(F)ccc1S(=O)(=O)Nc1cc(-c2c(O)ccc3ccccc23)c(O)c2ccccc12`, the GI50 is 2.6 µM in [1]; 4.09 µM in test [2]; 2 µM in [4]; 3.56 µM in [5]; 1.37 µM in test [10]; 3.65 µM in test [6]. The GI50 in test [7] is 2.68 µM; in [8], 1.83 µM; in test [9], 2.5 µM. Also, the TGI is 6.19 µM in test [1]; 14.4 µM in [2]; 5.73 µM in test [4]; 13 µM in [5]; 5.12 µM in test [10]; above 100 µM in test [6]. The TGI in [7] came out at 11.4 µM; in test [8] it was 3.59 µM; in test [9], 10.9 µM.

Consider `COc1c(O)c(C=O)c2c(O)c(-c3c(C)cc4c(C(C)C)c(OC)c(O)c(C=O)c4c3O)c(C)cc2c1C(C)C`, for which the TGI in test [1] was 41.4 µM; in test [4] it was 11.1 µM; in [5], above 100 µM; in test [6], 16.4 µM; in test [7], 14 µM; in [8], 12.8 µM. Further, in [9], the TGI worked out at 16.9 µM.

For `CC(=C(c1ccccc1)c1ccccc1)N1C(=O)CC(=O)N1C`, the TGI in test [2], in test [3], in test [4], in test [5], in [10] and in [6] was above 100 µM in each case. Further, the TGI in test [8] was above 100 µM; in test [9] it was 64.8 µM.

Regarding `CC(=O)OCC1OC(SC2=N/C(=C\c3ccc(Br)s3)C(=O)N2CN2CCOCC2)C(OC(C)=O)C(OC(C)=O)C1OC(C)=O` (configuration not stated), the TGI was found to be 12.8 µM in test [1]; 30.6 µM in test [2]; 91.8 µM in test [3]; 45.7 µM in test [5]; 54.5 µM in test [10]; 37 µM in test [6]. Besides, the TGI in [7] was 49.1 µM; in test [9], 34.3 µM.

Consider `C=C/C(C)=C\CC1[C@](C)(O)CC[C@H]2C(C)(C)C(=O)CC[C@]12C` (some centres not stated), for which the TGI was 60 µM in test [1]; above 100 µM in [2]; above 100 µM in test [4]; above 100 µM in test [5]; above 100 µM in test [10]; above 100 µM in test [6]. Moreover, the TGI in test [7], in test [8] and in test [9] was above 100 µM in each case.

Take `Nc1ccc(S(=O)(=O)c2ccc(NCN3C(=O)NC(=O)C(=O)C3=O)cc2)cc1`: the TGI in test [3], in test [4], in test [5], in test [10], in test [6] and in test [7] was above 100 µM throughout. This compound also registered a TGI in test [9] above 100 µM.

As to `NCCCN(CCCN(C(=O)Nc1ccccc1)c1ccccc1)C(=O)Nc1ccccc1`, the TGI in [1] is 66.1 µM; in test [2], above 100 µM; in test [3] it was 79.3 µM; in test [4], 55.6 µM; in [5] it was above 100 µM; in test [10], above 100 µM. In addition, the TGI in test [6] and in test [7] was above 100 µM each time.

In the case of `CSCSSC`, the TGI in test [2], in [3], in [4], in test [5], in [10] and in test [6] was above 100 µM in each case. For the same compound, the TGI in test [7], in test [8] and in [9] was above 100 µM in each case.

On to `O=c1cc(N2CCCC2)[nH]c(=O)n1Cc1ccccc1`, for which the TGI in test [1], in test [2], in [4], in test [5], in test [10] and in test [6] was above 100 µM throughout. In addition, the TGI in [7], in test [8] and in test [9] was above 100 µM in each case.

Turning to `Cc1csc(NC23CC4CC(CC(C4)C2)C3)[n+]1C(P(=O)([O-])O)P(=O)(O)O` (configuration not stated), the TGI in test [2], in test [5], in test [10], in test [6], in [7] and in test [8] was above 100 µM each time. In addition, the TGI in [9] was above 100 µM.

Turning to `CCNCCCn1c2c(c3ccc(Cl)cc3c1=O)C(=O)c1cc(OC)cnc1-2`, the GI50 in test [2] was 0.208 µM; in test [3], 0.161 µM; in test [4] it was 12.5 µM; in test [6] it was 0.694 µM; in test [7] it was 1.02 µM; in test [8] it was 0.506 µM. Moreover, in [9], the GI50 is 0.0472 µM. For the same compound, the TGI in test [2] is 1.56 µM; in [3], 1.58 µM; in test [4] it was 29.2 µM; in test [6], 3.22 µM; in test [7], 2.5 µM; in test [8], 1.71 µM. Moreover, the TGI in [9] was found to be 16.8 µM.

In the case of `Cc1ccc(OCC2OC(n3cnc4nc(N)nc(Cl)c43)CC2Oc2ccc(C)cc2)cc1` (configuration not stated), the TGI in test [2] was 35.9 µM; in test [3], 34.7 µM; in test [4], 37.7 µM; in test [10], 44.6 µM; in test [6], 50 µM; in [7] it was 59.3 µM. Also, the TGI is above 100 µM in [8] and 23.6 µM in test [9].
